Assay results reported in patent US6914045B2, “Glycopeptide antibiotics” (Wyeth Holdings Corporation, priority 2001, dated 2005).
Converted amounts (≈) assume the structure as drawn.

Key:
Test in all cases: in vitro antibacterial evaluation, MIC by broth dilution
Type in all cases: cell-based
Enterococcus sp. = settings: broth dilution, 18 hours at 35° C.
Summary of the method: (§1)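 Inoculum 5×10^5 CFU/mL; concentrations 64 to 0.06 μg/mL; MIC defined as lowest inhibitory level. Conducted by broth dilution under NCCLS guidelines.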

Escherichia coli = settings: 18 hours at 35° C.
Summary of the method: as §1

Staphylococcus sp. = settings: broth dilution, 18 hours at 35° C.
Summary of the method: as §1

Streptococcus sp. = settings: broth dilution, 18 hours at 35° C.
Summary of the method: as §1

SMILES: CC(C)=CCCC(C)C1OCC2OC(OC3C(CO)OC(Oc4ccc(CC5NC(=O)C(C(C)c6ccccc6)NC(=O)CNC(=O)C(CO)NC(=O)C(C(O)C6CNC(=N)N6C6OC(CO)C(O)C(O)C6O)NC(=O)C(C(O)C6CNC(=N)N6)NC5=O)cc4)C(O)C3O)C(O)C(O)C2O1 (stereo not shown) [Example 125]
- MIC Enterococcus avium (GC 4558) (Enterococcus sp.; Enterococcus avium (GC 4558)): 32 µg/mL (≈ 22.6 µM)
- MIC Enterococcus faecalis (ATCC 29212) (Enterococcus sp.; Enterococcus faecalis (ATCC 29212)): 32 µg/mL (≈ 22.6 µM)
- MIC Enterococcus faecalis (GC 2242) (Enterococcus sp.; Enterococcus faecalis (GC 2242)): 32 µg/mL (≈ 22.6 µM)
- MIC Enterococcus faecalis (GC 2691) (Enterococcus sp.; Enterococcus faecalis (GC 2691)): 32 µg/mL (≈ 22.6 µM)
- MIC Enterococcus faecalis (GC 3059) (Enterococcus sp.; Enterococcus faecalis (GC 3059)): 32 µg/mL (≈ 22.6 µM)
- MIC Enterococcus faecalis (GC 4552) (Enterococcus sp.; Enterococcus faecalis (GC 4552)): 32 µg/mL (≈ 22.6 µM)
- MIC Enterococcus faecalis (GC 4553) (Enterococcus sp.; Enterococcus faecalis (GC 4553)): 32 µg/mL (≈ 22.6 µM)
- MIC Enterococcus faecalis (GC 4554) (Enterococcus sp.; Enterococcus faecalis (GC 4554)): 32 µg/mL (≈ 22.6 µM)
- MIC Enterococcus faecalis (GC 6189) (Enterococcus sp.; Enterococcus faecalis (GC 6189)): 32 µg/mL (≈ 22.6 µM)
- MIC Enterococcus faecium (GC 2243) (Enterococcus sp.; Enterococcus faecium (GC 2243)): 32 µg/mL (≈ 22.6 µM)
- MIC Enterococcus faecium (GC 4556) (Enterococcus sp.; Enterococcus faecium (GC 4556)): 32 µg/mL (≈ 22.6 µM)
- MIC Enterococcus faecium (GC 4557) (Enterococcus sp.; Enterococcus faecium (GC 4557)): 16 µg/mL (≈ 11.3 µM)
- MIC Enterococcus faecalis (ATCC 29212) (Enterococcus sp.; strain ATCC 29212): 32 µg/mL (≈ 22.6 µM)
- MIC Enterococcus faecalis (GC 2242) (Enterococcus sp.; strain GC 2242): 32 µg/mL (≈ 22.6 µM)
- MIC Enterococcus faecium (GC 2243) (Enterococcus sp.; strain GC 2243): 32 µg/mL (≈ 22.6 µM)
- MIC Enterococcus faecalis (GC 2691) (Enterococcus sp.; strain GC 2691): 32 µg/mL (≈ 22.6 µM)
- MIC Enterococcus faecalis (GC 3059) (Enterococcus sp.; strain GC 3059): 32 µg/mL (≈ 22.6 µM)
- MIC Enterococcus faecalis (GC 4552) (Enterococcus sp.; strain GC 4552): 32 µg/mL (≈ 22.6 µM)
- MIC Enterococcus faecalis (GC 4553) (Enterococcus sp.; strain GC 4553): 32 µg/mL (≈ 22.6 µM)
- MIC Enterococcus faecalis (GC 4554) (Enterococcus sp.; strain GC 4554): 32 µg/mL (≈ 22.6 µM)
- MIC Enterococcus faecium (GC 4556) (Enterococcus sp.; strain GC 4556): 32 µg/mL (≈ 22.6 µM)
- MIC Enterococcus faecium (GC 4557) (Enterococcus sp.; strain GC 4557): 16 µg/mL (≈ 11.3 µM)
- MIC Enterococcus avium (GC 4558) (Enterococcus sp.; strain GC 4558): 32 µg/mL (≈ 22.6 µM)
- MIC Enterococcus faecalis (GC 6189) (Enterococcus sp.; strain GC 6189): 32 µg/mL (≈ 22.6 µM)
- MIC Escherichia coli (ATCC 25922) (Escherichia coli; strain ATCC 25922): >64 µg/mL
- MIC Escherichia coli (GC 4559) (Escherichia coli; strain GC 4559): >64 µg/mL
- MIC Escherichia coli (GC 4560) (Escherichia coli; strain GC 4560): 32 µg/mL (≈ 22.6 µM)
- MIC Staphylococcus aureus (ATCC 29213) (Staphylococcus sp.): 32 µg/mL (≈ 22.6 µM)
- MIC Staphylococcus aureus (GC 1131) (Staphylococcus sp.): 32 µg/mL (≈ 22.6 µM)
- MIC Staphylococcus aureus (GC 3051) (Staphylococcus sp.): 32 µg/mL (≈ 22.6 µM)
- MIC Staphylococcus aureus (GC 3053) (Staphylococcus sp.): 32 µg/mL (≈ 22.6 µM)
- MIC Staphylococcus aureus (GC 4541) (Staphylococcus sp.): 8 µg/mL (≈ 5.64 µM)
- MIC Staphylococcus aureus (GC 4542) (Staphylococcus sp.): 32 µg/mL (≈ 22.6 µM)
- MIC Staphylococcus aureus (GC 4544) (Staphylococcus sp.): 32 µg/mL (≈ 22.6 µM)
- MIC Staphylococcus aureus (GC 4545) (Staphylococcus sp.): 32 µg/mL (≈ 22.6 µM)
- MIC Staphylococcus aureus (GC 1131) (Staphylococcus sp.; inoculum 5×10^5 CFU/mL, strain GC 1131): 32 µg/mL (≈ 22.6 µM)
- MIC Staphylococcus aureus (ATCC 29213) (Staphylococcus sp.; strain ATCC 29213): 32 µg/mL (≈ 22.6 µM)
- MIC Staphylococcus aureus (GC 3051) (Staphylococcus sp.; strain GC 3051): 32 µg/mL (≈ 22.6 µM)
- MIC Staphylococcus aureus (GC 3053) (Staphylococcus sp.; strain GC 3053): 32 µg/mL (≈ 22.6 µM)
- MIC Staphylococcus aureus (GC 4541) (Staphylococcus sp.; strain GC 4541): 8 µg/mL (≈ 5.64 µM)
- MIC Staphylococcus aureus (GC 4542) (Staphylococcus sp.; strain GC 4542): 32 µg/mL (≈ 22.6 µM)
- MIC Staphylococcus aureus-SMITH (GC 4543) (Staphylococcus sp.; strain GC 4543): 32 µg/mL (≈ 22.6 µM)
- MIC Staphylococcus aureus (GC 4544) (Staphylococcus sp.; strain GC 4544): 32 µg/mL (≈ 22.6 µM)
- MIC Staphylococcus aureus (GC 4545) (Staphylococcus sp.; strain GC 4545): 32 µg/mL (≈ 22.6 µM)
- MIC Staphylococcus haemolyticus (GC 4546) (Staphylococcus sp.; strain GC 4546): 32 µg/mL (≈ 22.6 µM)
- MIC Coagulase Negative Staphylococcus (GC 4547) (Staphylococcus sp.; strain GC 4547): 32 µg/mL (≈ 22.6 µM)
- MIC Coagulase Negative Staphylococcus (GC 4548) (Staphylococcus sp.; strain GC 4548): 32 µg/mL (≈ 22.6 µM)
- MIC Coagulase Negative Staphylococcus (GC 4549) (Staphylococcus sp.; strain GC 4549): 32 µg/mL (≈ 22.6 µM)
- MIC Coagulase Negative Staphylococcus (GC 4551) (Staphylococcus sp.; strain GC 4551): 32 µg/mL (≈ 22.6 µM)
- MIC Coagulase Negative Staphylococcus (GC 6257) (Staphylococcus sp.; strain GC 6257): 32 µg/mL (≈ 22.6 µM)
- MIC Staphylococcus aureus-SMITH (GC 4543) (Staphylococcus sp.; strain SMITH GC 4543): 32 µg/mL (≈ 22.6 µM)
- MIC Streptococcus agalactiae (GC 4564) (Streptococcus sp.; Streptococcus agalactiae (GC 4564)): 1 µg/mL (≈ 0.705 µM)
- MIC Streptococcus pneumoniae (ATCC 6301) (Streptococcus sp.; Streptococcus pneumoniae (ATCC 6301)): 0.25 µg/mL (≈ 0.176 µM)
- MIC Streptococcus pneumoniae (GC 1894) (Streptococcus sp.; Streptococcus pneumoniae (GC 1894)): 0.12 µg/mL (≈ 0.0847 µM)
- MIC Streptococcus pneumoniae (GC 4565) (Streptococcus sp.; Streptococcus pneumoniae (GC 4565)): 0.25 µg/mL (≈ 0.176 µM)
- MIC Streptococcus pyogenes (GC 4563) (Streptococcus sp.; Streptococcus pyogenes (GC 4563)): 0.5 µg/mL (≈ 0.353 µM)
- MIC Streptococcus pneumoniae (ATCC 6301) (Streptococcus sp.; strain ATCC 6301): 0.25 µg/mL (≈ 0.176 µM)
- MIC Streptococcus pneumoniae (GC 1894) (Streptococcus sp.; strain GC 1894): 0.12 µg/mL (≈ 0.0847 µM)
- MIC Streptococcus pyogenes (GC 4563) (Streptococcus sp.; strain GC 4563): 0.5 µg/mL (≈ 0.353 µM)
- MIC Streptococcus agalactiae (GC 4564) (Streptococcus sp.; strain GC 4564): 1 µg/mL (≈ 0.705 µM)
- MIC Streptococcus pneumoniae (GC 4565) (Streptococcus sp.; strain GC 4565): 0.25 µg/mL (≈ 0.176 µM)
